Assay results: article PMC5267515, “In Vitro and Clinical Evaluations of the Drug-Drug Interaction Potential of a Metabotropic Glutamate 2/3 Receptor Agonist Prodrug with Intestinal Peptide Transporter 1” (Drug Metabolism and Disposition, 2017)
“Also recorded” adds a separate entry of the source. Where two headings read alike, the source gives them in different places.

Legend:
PEPT1 [1] = molecular target: PEPT1; parameters: method as in Ganapathy et al. (1998); conditions: ref Ganapathy et al. (1998); read-out: Ki value (printed in column IC50 against Gly-Sar); cited from earlier work
[2] = Clinical drug interaction study (H8Y-MC-HBCF), plasma and urine pharmacokinetics in healthy subjects; conditions: for Tmax: median (min–max)
PEPT1 [3] = molecular target: T1, PEPT1 (Homo sapiens, UniProt P46059); assay: Inhibition of PEPT1-mediated [14C]LY2140023 uptake in transfected HeLa cells; conditions: 10 μM [14C]LY2140023
T1 sequence (P46059 1-708): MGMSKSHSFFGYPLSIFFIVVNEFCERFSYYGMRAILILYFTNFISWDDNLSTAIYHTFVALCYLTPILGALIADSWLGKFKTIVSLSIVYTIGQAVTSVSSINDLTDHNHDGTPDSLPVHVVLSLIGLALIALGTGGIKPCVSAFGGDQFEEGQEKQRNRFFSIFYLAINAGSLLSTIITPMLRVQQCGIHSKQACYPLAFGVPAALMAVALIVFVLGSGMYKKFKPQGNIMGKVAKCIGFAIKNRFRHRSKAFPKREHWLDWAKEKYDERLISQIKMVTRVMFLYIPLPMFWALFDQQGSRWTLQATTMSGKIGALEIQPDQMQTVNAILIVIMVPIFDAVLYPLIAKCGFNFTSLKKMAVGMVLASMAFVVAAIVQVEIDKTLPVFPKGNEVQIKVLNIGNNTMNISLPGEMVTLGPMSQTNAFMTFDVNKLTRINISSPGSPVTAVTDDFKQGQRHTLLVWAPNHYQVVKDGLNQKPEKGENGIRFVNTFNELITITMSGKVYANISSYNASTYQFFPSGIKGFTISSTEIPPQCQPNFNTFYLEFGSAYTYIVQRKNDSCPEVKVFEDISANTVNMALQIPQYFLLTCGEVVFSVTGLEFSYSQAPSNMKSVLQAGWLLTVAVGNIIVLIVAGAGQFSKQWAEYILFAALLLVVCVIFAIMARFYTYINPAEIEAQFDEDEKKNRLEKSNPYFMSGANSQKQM

[4] = Clinical study safety (adverse events) in healthy subjects; type: in vivo, human
clinical = conditions: human, in vivo
[5] = human, in vivo
PEPT1 [6] = molecular target: T1, PEPT1; assay: Proton- and time-dependent transport of prodrug and active moiety in PEPT1 transfected HeLa cells; type: in vitro ADME; parameters: expressed in transfected cells; host or cells: HeLa cells (ATCC), transiently transfected with Fugene 6, pcDNA3.1 vector; conditions: 30 μM, pH 6.0 or 7.5, PEPT1 vs empty vector transfected HeLa cells
Protocol: The PEPT1 mediated [^14C]LY2140023 (30 μM) and [^14C]LY404039 (30 μM) uptake was measured in cells 24 hours post transfection. The time-dependent transport of LY2140023 and LY404039 was conducted using buffers prepared at either pH 6.0 or 7.5 as described above. The cells transfected with empty pcDNA3.1 vector were used to measure the passive diffusion of LY2140023 and LY404039. The cells were incubated for 1, 2.5, 5, 7.5, 10, and 15 minutes at room temperature and were washed, lysed, and contents quantified as described above.

PEPT1 [7] = molecular target: T1, PEPT1; assay: Inhibition of PEPT1-mediated [14C]Gly-Sar uptake in transfected HeLa cells; type: in vitro ADME; parameters: expressed in transfected cells; host or cells: HeLa cells (ATCC), transiently transfected with Fugene 6, pcDNA3.1 vector; conditions: 25 μM [14C]Gly-Sar; LY2140023 5 to 1000 μM; 3 minutes; read-out: IC50 against Gly-Sar, mean of two separate experiments
Protocol: An inhibition assay was conducted using 25 μM [^14C]Gly-Sar (0.278 μCi/ml) as a probe substrate to assess if the uptake of [^14C]Gly-Sar was inhibited by prodrug (5 to 1000 μM). The cells were incubated for 3 minutes in uptake buffer containing 25 μM [^14C]Gly-Sar and different concentrations of LY2140023 at room temperature. The uptake was corrected for background determined by parallel experiment in cells transfected with pcDNA3.1 empty vector. Cell lysing and protein quantification were performed as described above.

MDCK-MDR1 cells = tested on: MDCK-MDR1 cells; parameters: method as in data on file, Eli Lilly and Company; conditions: ref data on file, Eli Lilly and Company; cited from earlier work
Pept1 knockout mice = tested on: Pept1 knockout mice; parameters: method as in data on file, Eli Lilly and Company; conditions: ref data on file, Eli Lilly and Company; cited from earlier work
PEPT1 [8] = molecular target: T1, PEPT1; assay: Potential for clinical DDI: estimated GI concentration (I2) versus in vitro IC50; parameters: expressed in transfected cells; host or cells: HeLa cells (ATCC), transiently transfected with Fugene 6, pcDNA3.1 vector; conditions: dose divided by 250 ml (glass of water)
Protocol: These concentrations (I2) were obtained by dividing the recommended clinical dose by a volume of 250 ml (volume of glass of water) (Table 3).
Subsequently, to normalize the inhibitory potential to the clinical dose, the in vitro IC50 values were […] (the volume of a glass of water).

[9] = LY2140023 80 mg + valacyclovir 1000 mg coadministered, geometric mean (CV%)
[10] = human, plasma, oral, Cmax LS Geometric Mean, LY2140023 + Valacyclovir (Test)
[11] = human, plasma, oral, Cmax, LY2140023 80 mg + valacyclovir 1000 mg coadministered, geometric mean (CV%)
[12] = human, plasma, oral, LY2140023 80 mg + valacyclovir 1000 mg coadministered

SMILES: CC(C)[C@H](N)C(=O)OCCOCn1cnc2c(=O)[nH]c(N)nc21 [Valacyclovir]
- Ki (PEPT1 [1]): 740 µM
- fe (fraction of the dose excreted in urine) [2, 9]: 0.00776 (25.4)
- AUC(0-t) ([2]; human, plasma, oral, 1000 mg, AUC(0-3) LS Geometric Mean, Valacyclovir Alone (Reference)): 309 ng·h/mL
- AUC(0-t) ([2]; human, plasma, oral, 1000 mg, AUC(0-3), single 1000-mg dose of valacyclovir alone, geometric mean (CV%), n = 22): 311 ng·h/mL
- Cmax ([2]; human, plasma, oral, 1000 mg, Cmax LS Geometric Mean, Valacyclovir Alone (Reference)): 245 ng/mL
- Cmax ([2]; human, plasma, oral, 1000 mg, Cmax, single 1000-mg dose of valacyclovir alone, geometric mean (CV%)): 245 ng/mL
- Tmax ([2]; human, plasma, oral, 1000 mg, single 1000-mg dose of valacyclovir alone): 2 h
- AUC(0-t) ([2]; human, plasma, oral, AUC(0-3) LS Geometric Mean, Valacyclovir + LY2140023 (Test)): 278 ng·h/mL
- AUC(0-t) ([2]; human, plasma, oral, AUC(0-3), LY2140023 80 mg + valacyclovir 1000 mg coadministered, geometric mean (CV%)): 270 ng·h/mL
- Cmax [2, 10]: 258 ng/mL
- Cmax [2, 11]: 255 ng/mL
- Tmax [2, 12]: 2 h
- CL renal ([2]; human, urine and plasma, oral, 1000 mg): 262 mL/min
- fe ([2]; single 1000-mg dose of valacyclovir alone, geometric mean (CV%)): 0.00703 (64.7)
- IC50 (PEPT1 [3]; IC50 against LY2140023, first of two separate experiments): 410 ± 50 µM
- IC50 (PEPT1 [3]; IC50 against LY2140023, second of two separate experiments): 500 ± 110 µM
- IC50 (PEPT1 [3]; Mean IC50 against LY2140023, mean of two separate experiments): 460 µM
- adverse events ([4]; after 1000 mg of valacyclovir alone): mild AE of urticaria; also recorded: one severe AE of headache

SMILES: Nc1nc2c(ncn2COCCO)c(=O)[nH]1 [Acyclovir]
- AUC(0-inf) (clinical; AUC(0-∞)): 17500 ng·h/mL
- AUC(0-inf) (clinical; AUC(0-∞) LS Geometric Mean): 17500 ng·h/mL
- Cmax (clinical; Cmax): 4400 ng/mL
- Cmax (clinical; Cmax LS Geometric Mean): 4400 ng/mL
- Tmax (clinical; tmax): 2.5 h
- fe [5]: 0.460 (32.0)

SMILES: CSCC[C@H](N)C(=O)N[C@@]1(C(=O)O)CS(=O)(=O)[C@H]2[C@H](C(=O)O)[C@H]21 [LY2140023, Pomaglumetad methionil]
- PEPT1 substrate status (PEPT1 [6]): a PEPT1 substrate; also recorded: PEPT1-mediated, proton-dependent process
- PEPT1 substrate status (PEPT1 [6]; listed as LY2140023 monohydrate): is a substrate of PEPT1
- Vd/F (clinical; Vz/F): 166 L
- CL/F [2, 9]: 65.9 (31) L/hour
- half-life ([2]; human, plasma, oral, 80 mg): 1.92 h
- AUC(0-inf) ([2]; human, plasma, oral, 80 mg, AUC(0-∞) LS Geometric Mean, LY2140023 Alone (Reference)): 1350 ng·h/mL
- AUC(0-inf) ([2]; human, plasma, oral, 80 mg, AUC(0-∞), single 80-mg dose of LY2140023 alone, geometric mean (CV%)): 1330 ng·h/mL
- Cmax ([2]; human, plasma, oral, 80 mg, Cmax LS Geometric Mean, LY2140023 Alone (Reference)): 310 ng/mL
- Cmax ([2]; human, plasma, oral, 80 mg, Cmax, single 80-mg dose of LY2140023 alone, geometric mean (CV%)): 307 ng/mL
- Tmax ([2]; human, plasma, oral, 80 mg, single 80-mg dose of LY2140023 alone): 3 h
- AUC(0-inf) ([2]; human, plasma, oral, AUC(0-∞) LS Geometric Mean, LY2140023 + Valacyclovir (Test)): 1220 ng·h/mL
- AUC(0-inf) ([2]; human, plasma, oral, AUC(0-∞), LY2140023 80 mg + valacyclovir 1000 mg coadministered, geometric mean (CV%)): 1210 ng·h/mL
- Cmax [2, 10]: 275 ng/mL
- Cmax [2, 11]: 272 ng/mL
- Tmax [2, 12]: 3 h
- CL/F ([2]; single 80-mg dose of LY2140023 alone, geometric mean (CV%)): 60.2 (27) L/hour
- IC50 (PEPT1 [7]): 18 µM
- passive permeability (MDCK-MDR1 cells): approximately 1 × 10^−6 cm/s
- AUC0–∞ in Pept1 knockout mice relative to wildtype mice (Pept1 knockout mice): 10%
- Cmax in Pept1 knockout mice relative to wildtype mice (Pept1 knockout mice): 10%
- Estimated Intestinal Concentration (PEPT1 [8]): 0.873 mM
- most common AEs ([4]; after prodrug alone (80 mg)): nausea, dizziness, somnolence, and headache
